The values below come from patent US20190374533A1, “COMPOUNDS AND METHODS FOR INHIBITING NHE-MEDIATED ANTIPORT IN THE TREATMENT OF DISORDERS ASSOCIATED WITH FLUID RETENTION OR SALT OVERLOAD AND GASTROINTESTINAL TRACT DISORDERS” (Ardelyx, Inc., priority 2008, published 2019).

The structures appear in SMILES notation.

A word on the AUC: it is the area under the concentration-time curve, a measure of exposure. A lower AUC goes with less exposure. Broadly, the Cmax is the peak of the concentration-time curve.

T1 sequence (P26433 29-831): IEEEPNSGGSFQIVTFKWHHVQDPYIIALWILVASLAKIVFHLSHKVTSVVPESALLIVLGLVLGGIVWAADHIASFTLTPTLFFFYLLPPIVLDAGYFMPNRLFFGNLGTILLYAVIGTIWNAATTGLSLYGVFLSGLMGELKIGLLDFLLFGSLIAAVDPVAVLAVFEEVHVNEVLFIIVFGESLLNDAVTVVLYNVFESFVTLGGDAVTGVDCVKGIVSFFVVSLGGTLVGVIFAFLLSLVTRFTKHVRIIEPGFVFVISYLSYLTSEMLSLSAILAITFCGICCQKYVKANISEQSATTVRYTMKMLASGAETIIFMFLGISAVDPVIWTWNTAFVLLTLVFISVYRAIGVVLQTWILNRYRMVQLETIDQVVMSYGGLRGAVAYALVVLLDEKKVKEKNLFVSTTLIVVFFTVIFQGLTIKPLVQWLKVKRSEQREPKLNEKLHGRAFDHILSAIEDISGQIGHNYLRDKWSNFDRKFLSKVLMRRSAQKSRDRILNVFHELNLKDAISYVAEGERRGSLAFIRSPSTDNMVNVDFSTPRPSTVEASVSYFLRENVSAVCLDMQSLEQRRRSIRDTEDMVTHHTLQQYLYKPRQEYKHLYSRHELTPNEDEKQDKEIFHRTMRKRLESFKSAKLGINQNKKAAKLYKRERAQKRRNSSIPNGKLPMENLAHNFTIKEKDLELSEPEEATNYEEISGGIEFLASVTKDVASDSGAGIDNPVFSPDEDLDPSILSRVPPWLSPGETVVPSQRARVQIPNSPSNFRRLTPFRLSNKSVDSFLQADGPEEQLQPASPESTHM

One data set concerns the target T1, rat NHE-3 (Rattus norvegicus, UniProt P26433).
T1 construct: expressed in transfected cells; host or cells: Opossum kidney (OK) cells (ATCC), electroporated
Nature of the data set: Cell-based assay of NHE-3 activity (Pharmacological Test Example 1). Conditions: OK cells expressing rat NHE-3; 0-30 uM test compound, 5 uM EIPA. As to the method: Rat NHE-3-mediated Na^+-dependent H^+ antiport was measured using a modification of the pH sensitive dye method originally reported by Tsien (Proc. Natl. Acad. Sci. USA. (1984) 81(23): 7436-7440). Opossum kidney (OK) cells were obtained from the ATCC and propagated per their instructions. The rat NHE-3 gene was introduced into OK cells via electroporation, seeded into 96 well plates and grown overnight. Medium was aspirated from the wells, cells were washed twice with NaCl-HEPES buffer (100 mM NaCl, 50 mM HEPES, 10 mM glucose, 5 mM KCl, 2 mM CaCl2, 1 mM MgCl2, pH 7.4), then incubated for 30 min at room temperature with NH4Cl-HEPES buffer (20 mM NH4Cl, 80 mM NaCl, 50 mM HEPES, 5 mM KCl, 2 mM CaCl2), 1 mM MgCl2, pH 7.4) containing 5 uM BCECF-AM (Invitrogen). Cells were washed twice with Ammonium free, Nat-free HEPES (100 mM choline, 50 mM HEPES, 10 mM glucose, 5 mM KCl, 2 mM CaCl2), 1 mM MgCl2, pH 7.4) and incubated in the same buffer for 10 minutes at room temperature to lower intracellular pH. […] Initial rates were plotted as the average 3-6 replicates, and pIC50 values were estimated using GraphPad Prism.
In the case of `C/C(=C\c1cc(F)c(Oc2ccc(S(=O)(=O)NCCOCCOCCOCCOCCOCCOCCNC(=O)C(O)C(O)C(=O)NCCOCCOCCOCCOCCOCCOCCNS(=O)(=O)c3ccc(Oc4c(F)cc(/C=C(\C)C(=O)N=C(N)N)cc4F)cc3)cc2)c(F)c1)C(=O)N=C(N)N` (stereo not shown) [Example 104, N1,N4-bis(20-(4-(4-((E)-3-(diaminomethyleneamino)-2-methyl-3-oxoprop-1-enyl)-2,6-difluorophenoxy)phenylsulfonamido)-3,6,9,12,15,18-hexaoxaicosyl)-2,3-dihydroxysuccinamide], the “rat NHE-3 Average pIC50” value fell in the range of 6 to 7. For `C/C(=C\c1cc(F)c(Oc2ccc(S(=O)(=O)NCCOCCOCCOCCN)cc2)c(F)c1)C(=O)N=C(N)N` [Example 45, (E)-3-(4-(4-(N-(2-(2-(2-(2-aminoethoxy)ethoxy)ethoxy)ethyl)sulfamoyl)phenoxy)-3,5-difluorophenyl)-N-(diaminomethylene)-2-methylacrylamide], the “rat NHE-3 Average pIC50” value was 6 to 7. As to `N=C(N)N1CCN(c2ccc(-c3nc(N=C(N)N)nc4ccc(Cl)cc34)cc2)CC1` [Example 66, 4-(4-(6-chloro-2-(diaminomethyleneamino)quinazolin-4-yl)phenyl)piperazine-1-carboximidamide], the “rat NHE-3 Average pIC50” value was 6 to 7.

Test system in the next data set: not listed separately
Nature of the data set: Determination of compound Cmax and AUC. It is filed as in vivo. Conditions: rat; Sprague-Dawley rats, oral gavage, serum 0.5-4 h; actual oral dose (mg/kg) given. The procedure:
Sprague-Dawley rats were orally gavaged with test article (2.5 mg/kg) and serum was collected at 0.5, 1, 2 and 4 h. Serum samples were treated with acetonitrile, precipitated proteins removed by centrifugation and supernatants analyzed by LC/MS/MS and compared against a standard curve to determine compound concentration. All compounds were orally dosed at the dosage shown, and pharmacokinetic parameters determined as described in the text.
The compound `CN1Cc2c(Cl)cc(Cl)cc2C(c2cccc(S(=O)(=O)NCCOCCOCCOCCNC(=O)C(=O)NCCOCCOCCOCCNS(=O)(=O)c3cccc(C4CN(C)Cc5c(Cl)cc(Cl)cc54)c3)c2)C1` (stereo not shown) [Example 180, N1,N2-bis(2-(2-(2-(2-(3-(6,8-dichloro-2-methyl-1,2,3,4-tetrahydroisoquinolin-4-yl)phenylsulfonamido)ethoxy)ethoxy)ethoxy)ethyl)oxalamide] yielded an AUC of less than 19 ng·h/mL and a Cmax of less than 10 ng/mL. In the same order, the values of `CN1Cc2c(Cl)cc(Cl)cc2C(c2cccc(S(=O)(=O)NCCOCCOCCNC(=O)NCCOCCOCCNS(=O)(=O)c3cccc(C4CN(C)Cc5c(Cl)cc(Cl)cc54)c3)c2)C1` (stereo not shown) [Example 235, N,N′-(10-oxo-3,6,14,17-tetraoxa-9,11-diazanonadecane-1,19-diyl)bis(3-(6,8-dichloro-2-methyl-1,2,3,4-tetrahydroisoquinolin-4-yl)benzenesulfonamide)] are less than 5 ng·h/mL and less than 5 ng/mL. Regarding `CN1Cc2c(Cl)cc(Cl)cc2C(c2cccc(S(=O)(=O)NCCOCCOCCOCCNC(=O)C(O)C(O)C(=O)NCCOCCOCCOCCNS(=O)(=O)c3cccc(C4CN(C)Cc5c(Cl)cc(Cl)cc54)c3)c2)C1` (stereo not shown) [Example 172, N1,N4-bis(2-(2-(2-(2-(3-(6,8-dichloro-2-methyl-1,2,3,4-tetrahydroisoquinolin-4-yl)phenylsulfonamido)ethoxy)ethoxy)ethoxy)ethyl)-2,3-dihydroxysuccinamide], the AUC is less than 2 ng·h/mL and the Cmax is less than 2 ng/mL. In turn, `CN1Cc2c(Cl)cc(Cl)cc2C(c2cccc(S(=O)(=O)NCCOCCOCCOCCNC(=O)CCC(=O)NCCOCCOCCOCCNS(=O)(=O)c3cccc(C4CN(C)Cc5c(Cl)cc(Cl)cc54)c3)c2)C1` (stereo not shown) [Example 181, N1,N4-bis(2-(2-(2-(2-(3-(6,8-dichloro-2-methyl-1,2,3,4-tetrahydroisoquinolin-4-yl)phenylsulfonamido)ethoxy)ethoxy)ethoxy)ethyl)succinamide] had an AUC of less than 2 ng·h/mL and a Cmax of less than 2 ng/mL. In turn, `CN1Cc2c(Cl)cc(Cl)cc2C(c2cccc(NC(=O)NCCOCCOCCOCCNC(=O)C(O)C(O)C(=O)NCCOCCOCCOCCNC(=O)Nc3cccc(C4CN(C)Cc5c(Cl)cc(Cl)cc54)c3)c2)C1` (stereo not shown) [Example 174, N1,N4-bis(1-(3-(6,8-dichloro-2-methyl-1,2,3,4-tetrahydroisoquinolin-4-yl)phenylamino)-1-oxo-5,8,11-trioxa-2-azatridecan-13-yl)-2,3-dihydroxysuccinamide] had an AUC of less than 5 ng·h/mL and a Cmax of less than 5.4 ng/mL. On to `CN1Cc2c(Cl)cc(Cl)cc2C(c2cccc(S(=O)(=O)NCCNC(=O)C(O)C(O)C(=O)NCCNS(=O)(=O)c3cccc(C4CN(C)Cc5c(Cl)cc(Cl)cc54)c3)c2)C1` (stereo not shown) [Example 169, N1,N4-bis(2-(3-(6,8-dichloro-2-methyl-1,2,3,4-tetrahydroisoquinolin-4-yl)phenylsulfonamido)ethyl)-2,3-dihydroxysuccinamide], for which the AUC was less than 4 ng·h/mL and the Cmax was less than 3.5 ng/mL. Taken in the same sequence, the figures for `CN1Cc2c(Cl)cc(Cl)cc2[C@H](c2cccc(S(=O)(=O)NCCOCCOCCOCCNC(=O)Nc3ccc(NC(=O)NCCOCCOCCOCCNS(=O)(=O)c4cccc([C@@H]5CN(C)Cc6c(Cl)cc(Cl)cc65)c4)cc3)c2)C1` (single isomer, unassigned) [Example 245, (S or R)—N,N′-(1,1′-(1,4-phenylenebis(azanediyl))bis(1-oxo-5,8,1-trioxa-2-azatridecane-13,1-diyl))bis(3-((S or R)-6,8-dichloro-2-methyl-1,2,3,4-tetrahydroisoquinolin-4-yl)benzenesulfonamide)] were less than 2 ng·h/mL and less than 2 ng/mL. The compound `CN(CC(=O)NCCOCCOCCNS(=O)(=O)c1ccc(C2CN(C)Cc3c(Cl)cc(Cl)cc32)cc1)CC(=O)NCCOCCOCCNS(=O)(=O)c1ccc(C2CN(C)Cc3c(Cl)cc(Cl)cc32)cc1` (stereo not shown) [Example 185, 2,2′-(methylazanediyl)bis(N-(2-(2-(2-(4-(6,8-dichloro-2-methyl-1,2,3,4-tetrahydroisoquinolin-4-yl)phenylsulfonamido)ethoxy)ethoxy)ethyl)acetamide) tris(2,2,2-trifluoroacetate)] gave an AUC of less than 2 ng·h/mL and a Cmax of less than 2 ng/mL. The compound `CN1Cc2c(Cl)cc(Cl)cc2C(c2cccc(NC(=O)CCOCCOCCOCCNC(=O)[C@H](O)[C@@H](O)C(=O)NCCOCCOCCOCCC(=O)Nc3cccc(C4CN(C)Cc5c(Cl)cc(Cl)cc54)c3)c2)C1` (stereo partly drawn) [Example 179, (2R,3R)—N1,N4-bis(2-(2-(2-(3-(3-(6,8-dichloro-2-methyl-1,2,3,4-tetrahydroisoquinolin-4-yl)phenylamino)-3-oxopropoxy)ethoxy)ethoxy)ethyl)-2,3-dihydroxysuccinamide] had an area under the curve (AUC) of less than 35 ng·h/mL and a Cmax of less than 16 ng/mL.

In turn, `CN1Cc2c(Cl)cc(Cl)cc2C(c2ccc(S(=O)(=O)NCCOCCOCCNC(=O)c3cc(N)cc(C(=O)NCCOCCOCCNS(=O)(=O)c4ccc(C5CN(C)Cc6c(Cl)cc(Cl)cc65)cc4)c3)cc2)C1.O=C(O)C(F)(F)F.O=C(O)C(F)(F)F.O=C(O)C(F)(F)F` (stereo not shown) [Example 186, 5-amino-N1,N3-bis(2-(2-(2-(4-(6,8-dichloro-2-methyl-1,2,3,4-tetrahydroisoquinolin-4-yl)phenylsulfonamido)ethoxy)ethoxy)ethyl)isophthalamide tris(2,2,2-trifluoroacetate)] returned an AUC of less than 5 ng·h/mL and a Cmax of less than 3.4 ng/mL. With `CN1Cc2c(Cl)cc(Cl)cc2C(c2cccc(S(=O)(=O)NCCOCCOCCOCCOCCOCCOCCOCCOCCOCCOCCN)c2)C1` (stereo not shown) [Example 214, N-(32-amino-3,6,9,12,15,18,21,24,27,30-decaoxadotriacontyl)-3-(6,8-dichloro-2-methyl-1,2,3,4-tetrahydroisoquinolin-4-yl)benzenesulfonamide], the AUC was less than 5 ng·h/mL and the Cmax was less than 5 ng/mL. In turn, `CN1Cc2c(Cl)cc(Cl)cc2[C@@H](c2ccc(S(=O)(=O)NCCOCCOCCOCCNC(=O)C(O)C(O)C(=O)NCCOCCOCCOCCNS(=O)(=O)c3ccc([C@H]4CN(C)Cc5c(Cl)cc(Cl)cc54)cc3)cc2)C1` (single isomer, unassigned) [Example 226, N1,N4-bis(2-(2-(2-(2-(4-((R or S)-6,8-dichloro-2-methyl-1,2,3,4-tetrahydroisoquinolin-4-yl)phenylsulfonamido)ethoxy)ethoxy)ethoxy)ethyl)-2,3-dihydroxysuccinamide] showed an AUC of less than 5 ng·h/mL and a Cmax of less than 3 ng/mL. Taken in the same sequence, the figures for `CN1Cc2c(Cl)cc(Cl)cc2C(c2cccc(S(=O)(=O)NCCOCCOCCNC(=O)[C@H](O)[C@@H](O)C(=O)NCCOCCOCCNS(=O)(=O)c3cccc(C4CN(C)Cc5c(Cl)cc(Cl)cc54)c3)c2)C1` (stereo partly drawn) [Example 218, (2R,3R)—N1,N4-bis(2-(2-(2-(3-(6,8-dichloro-2-methyl-1,2,3,4-tetrahydroisoquinolin-4-yl)phenylsulfonamido)ethoxy)ethoxy)ethyl)-2,3-dihydroxysuccinamide] were less than 1 ng·h/mL and less than 1 ng/mL. In the same order, the values of `C/C(=C\c1cc(F)c(Oc2ccc(S(=O)(=O)NCCN3CCN(CCNS(=O)(=O)c4ccc(Oc5c(F)cc(/C=C(\C)C(=O)N=C(N)N)cc5F)cc4)CC3)cc2)c(F)c1)C(=O)N=C(N)N` [Example 50, N,N′-(2,2′-(piperazine-1,4-diyl)bis(ethane-2,1-diyl))di-((E)-N-(diaminomethylene)-3-(3,5-difluoro-4-(4-sulfamoylphenoxy)phenyl)-2-methylacrylamide)] are 242 ng·h/mL and 93 ng/mL.
